Data on 10 compounds can be found in patent publication US9353081B2, “Bicyclic dihydroquinoline-2-one derivatives” (Hoffmann-La Roche Inc., priority 2011, dated 2016).

One experiment deals with human CYP11B1 (Homo sapiens (Human), UniProt P15538). In words: G-402 cellular enzyme assay, human CYP11B1 (cortisol release, HTRF). Format: cell-based. To be noted: G-402 cells expressing human CYP11B1; 1 μM Deoxycortisol. An excerpt:
(§1) Specifically we developed stable G-402 cells expressing ectopically human CYP11B1, human CYP11B2, human CYP11A1, cynomolgus CYP11B1 or cynomolgus CYP11B2 enzyme activity.
(§2) The expression plasmids contains the ORF for either human/cyno CYP11B1 or CYP11B2 under the control of a suitable promoter (CMV-promoter) and a suitable resistance marker (neomycin). Using standard techniques the expression plasmid is transfected into G-402 cells and these cells are then selected for expressing the given resistance markers. Individual cell-clones are then selected and assessed for displaying the desired enzymatic activity using 11-Deoxycorticosterone (Cyp11B2) or 11-Deoxycortisol (Cyp11B1) as a substrate.
(§3) For assaying enzymatic activity, cells were plated onto 96 well plates and incubated for 16 h. An aliquot of the supernatant is then transferred and analyzed for the concentration of the expected product (Aldosterone for CYP11B2; Cortisol for CYP11B1). The concentrations of these steroids can be determined using HTRF assays from CisBio analyzing either Aldosterone or Cortisol.
(§4) Inhibition of the release of produced steroids can be used as a measure of the respective enzyme inhibition by test compounds added during the cellular enzyme assay. The dose dependent inhibition of enzymatic activity by a compound is calculated by means of plotting added inhibitor concentrations x-axes) vs. measured steroid/product level (y-axes). The inhibition is then calculated by fitting the following 4-parameter sigmoidal function (Morgan-Mercer-Flodin (MMF) model) to the raw data points using the least squares method:
(§5) [formula] wherein, A is the maximum y value, B is the EC50 factor determined using XLFit, C is the minimum y value and D is the slope value.
(§6) EC50 values for compounds claimed herein were tested with the G402-based assay system described. Cyp11B2 enzyme activity was tested in presence of 1 μM Deoxycorticosterone and variable amounts of inhibitors; Cyp11B1 enzyme activity was tested in presence of 1 μM Deoxycortisol and variable amounts of inhibitors.
In general terms: In TR-FRET formats the signal depends on donor and acceptor labels being close together.

For another experiment, the target named is human CYP11B2 (Homo sapiens (Human), UniProt P19099). Description: G-402 cellular enzyme assay, human CYP11B2 (aldosterone release, HTRF). Format: cell-based. To be noted: G-402 cells expressing human CYP11B2; 1 μM Deoxycorticosterone.
Excerpt: as §1, §2, §3, §4, §5, §6

Each structure is given as a SMILES string.

Chain of human CYP11B2 (P19099 25-503): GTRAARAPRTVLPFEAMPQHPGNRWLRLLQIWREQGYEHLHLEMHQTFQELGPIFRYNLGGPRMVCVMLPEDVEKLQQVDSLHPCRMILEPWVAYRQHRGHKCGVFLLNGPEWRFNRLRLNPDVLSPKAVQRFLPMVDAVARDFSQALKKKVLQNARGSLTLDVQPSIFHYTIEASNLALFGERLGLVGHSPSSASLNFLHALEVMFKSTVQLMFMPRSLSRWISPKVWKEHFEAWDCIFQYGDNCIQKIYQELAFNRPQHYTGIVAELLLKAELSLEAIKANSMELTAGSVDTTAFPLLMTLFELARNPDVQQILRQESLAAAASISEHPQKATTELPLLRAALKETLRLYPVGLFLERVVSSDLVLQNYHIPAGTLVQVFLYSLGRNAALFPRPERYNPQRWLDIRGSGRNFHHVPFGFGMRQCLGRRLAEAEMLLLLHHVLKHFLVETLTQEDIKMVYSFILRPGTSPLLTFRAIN
Chain of human CYP11B1 (P15538 25-503): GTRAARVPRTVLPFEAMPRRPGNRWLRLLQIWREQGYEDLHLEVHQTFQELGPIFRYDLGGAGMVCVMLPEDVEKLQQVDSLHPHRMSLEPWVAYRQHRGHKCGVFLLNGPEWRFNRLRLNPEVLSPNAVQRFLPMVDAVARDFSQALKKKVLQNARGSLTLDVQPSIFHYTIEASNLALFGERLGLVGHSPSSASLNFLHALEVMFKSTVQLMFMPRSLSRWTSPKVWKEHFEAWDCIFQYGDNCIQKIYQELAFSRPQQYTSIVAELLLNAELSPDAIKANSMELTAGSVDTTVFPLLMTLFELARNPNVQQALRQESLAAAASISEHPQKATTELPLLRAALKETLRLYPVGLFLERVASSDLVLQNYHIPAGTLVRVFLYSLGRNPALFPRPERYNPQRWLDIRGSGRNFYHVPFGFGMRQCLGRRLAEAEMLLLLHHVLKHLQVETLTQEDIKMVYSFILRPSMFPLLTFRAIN

The EC50 is the concentration at which the effect is half-maximal. A lower EC50 goes with an effect from little substance. Regarding `CCS(=O)(=O)NC1CCCc2c(-c3cc(Cl)c4c(c3)CCC(=O)N4C)cncc21` (single isomer, unassigned; (+)) [Example 38, (+)-Ethanesulfonic acid [(R or S)-4-(8-chloro-1-methyl-2-oxo-1,2,3,4-tetrahydro-quinolin-6-yl)-5,6,7,8-tetrahydro-isoquinolin-8-yl]-amide], the values for the EC50 on human CYP11B1 and at human CYP11B2 were 15900 nM and 422 nM, respectively.

As for `CCC(=O)NC1CCCc2c(-c3cc(Cl)c4c(c3)CCC(=O)N4C)cncc21` (single isomer, unassigned; (+)) [Example 41, (+)-N—[(R or S)-4-(8-Chloro-1-methyl-2-oxo-1,2,3,4-tetrahydro-quinolin-6-yl)-5,6,7,8-tetrahydro-isoquinolin-8-yl]-propionamide], the concentration giving a half-maximal response (EC50) at human CYP11B1 stood at 3530 nM; on human CYP11B2, 16.6 nM.

Take `CCC(=O)NC1CCc2c(-c3cc(Cl)c4c(c3)CCC(=O)N4C)cncc21` (single isomer, unassigned; (+)) [Example 60, (+)-(R or S)—N-(4-(8-Chloro-1-methyl-2-oxo-1,2,3,4-tetrahydroquinolin-6-yl)-6,7-dihydro-5H-cyclopenta[c]pyridin-7-yl)propionamide]: the EC50 on human CYP11B1 was 1170 nM; on human CYP11B2 it was 8.8 nM.

Regarding `CCC(=O)NC1CCCc2c(-c3ccc4c(c3)CCC(=O)N4C)cncc21` (single isomer, unassigned; (-)) [Example 2, (−)-(R or S)—N-(4-(1-Methyl-2-oxo-1,2,3,4-tetrahydroquinolin-6-yl)-5,6,7,8-tetrahydroisoquinolin-8-yl)propionamide], the EC50 on human CYP11B1 worked out at 12100 nM; on human CYP11B2, 1020 nM.

With `CCS(=O)(=O)NC1CCCc2c(-c3ccc4c(c3)CCC(=O)N4C)cncc21` (single isomer, unassigned; (-)) [Example 5, (−)-(R or S)—N-(4-(1-Methyl-2-oxo-1,2,3,4-tetrahydroquinolin-6-yl)-5,6,7,8-tetrahydroisoquinolin-8-yl)ethanesulfonamide], the EC50 amounted to 11800 nM on human CYP11B1 and 1290 nM at human CYP11B2.

Take `C[C@@H](O)C(=O)NC1CCCc2c(-c3ccc4c(c3)CCC(=O)N4C)cncc21` (single isomer, unassigned; (-)) [Example 19, (−)-(2R)-2-Hydroxy-N-((4S or 4R)-4-(1-methyl-2-oxo-1,2,3,4-tetrahydroquinolin-6-yl)-5,6,7,8-tetrahydroisoquinolin-8-yl)propanamide]: the EC50 on human CYP11B1 turned out to be 13200 nM; at human CYP11B2, 493 nM.

Consider `C[C@H](O)C(=O)NC1CCCc2c(-c3ccc4c(c3)CCC(=O)N4C)cncc21` (single isomer, unassigned; (-)) [Example 20, (−)-(2S)-2-hydroxy-N-((4S or 4R)-4-(1-methyl-2-oxo-1,2,3,4-tetrahydroquinolin-6-yl)-5,6,7,8-tetrahydroisoquinolin-8-yl)propanamide], for which the values for the EC50 at human CYP11B1 and at human CYP11B2 were 25500 nM and 823 nM, respectively.

Turning to `CCC(=O)NC1CCCc2c(-c3cc4c(cc3F)N(C)C(=O)CC4)cncc21` (single isomer, unassigned; (-)) [Example 29, (−)-(S or R)—N-[4-(7-Fluoro-1-methyl-2-oxo-1,2,3,4-tetrahydro-quinolin-6-yl)-5,6,7,8-tetrahydro-isoquinolin-8-yl]-propionamide], the EC50 on human CYP11B1 was 42600 nM; at human CYP11B2, 1790 nM.

Take `CCS(=O)(=O)NC1CCCc2c(-c3cc4c(cc3F)N(C)C(=O)CC4)cncc21` (single isomer, unassigned; (-)) [Example 31, (−)-(S or R)-Ethanesulfonic acid [4-(7-fluoro-1-methyl-2-oxo-1,2,3,4-tetrahydro-quinolin-6-yl)-5,6,7,8-tetrahydro-isoquinolin-8-yl]-amide]: the results for the EC50 on human CYP11B1 and on human CYP11B2 were 14500 nM and 1040 nM, respectively.

Regarding `CCC(=O)N[C@@H]1CCCc2c(-c3ccc4c(c3)CCC(=O)N4C)cncc21` [Example 3-1, (+)-(R)—N-(4-(1-Methyl-2-oxo-1,2,3,4-tetrahydroquinolin-6-yl)-5,6,7,8-tetrahydroisoquinolin-8-yl)propionamide], the EC50 at human CYP11B1 turned out to be 980 nM; on human CYP11B2, 14 nM.
